Data reported in PubChem BioAssay AID2305 (GlaxoSmithKline (GSK), 2010).

Tested on: P. falciparum 3D7 growth, pLDH absorbance
Experiment: P. falciparum 3D7 growth inhibition, dose response, strain 3D7 (AID 2305)

| SMILES | IC50 |
| --- | --- |
| Cc1cc(C(F)(F)F)n2nc(C(=O)N(C)Cc3cncn3Cc3ccc(F)cc3)cc2n1 | 830 nM |
| Cc1cc(N2CCCC2)nc(Nc2ccc(NC(=O)C3CCCC3)cc2)n1 | 1110 nM |
| COc1cccc(C(C)(C)NC[C@@H](O)[C@H](Cc2ccccc2)NC(=O)c2cc(C3CCCC3)cc(N3CCCCS3(=O)=O)c2F)c1 | 30 nM |
| Cc1c(O)cccc1Nc1ccnc2ccc(C(F)(F)F)cc12 | 30 nM |
| COc1ccc(Cl)cc1N1CCN(CCCNC(=O)c2ccc(-c3nc4cc(Cl)c(F)cc4[nH]3)s2)CC1 | 310 nM |
| Cc1cccc2[nH]c(-c3ccc(-c4cccc(NC(=O)C(C)CN(C)C)c4)s3)nc12 (stereo unspecified) | 720 nM |
| O=C(Nc1cccc(-c2nn3ncccc3c2-c2ccnc(Nc3ccccc3)n2)c1)c1c(F)cccc1F | 730 nM |
| COc1ccc2ncc(C#N)c(CCN3C[C@H](CNCc4ccccc4)[C@H](O)C3)c2n1 | 1060 nM |
| FC(F)(F)COc1ccc(CCNCCCCNCCc2ccc(OCC(F)(F)F)c3ccccc23)c2ccccc12 | 650 nM |
| NC1CCCN(Cc2cccc(-c3ccc(-c4nc5ccccc5[nH]4)cc3)c2)C1 (stereo unspecified) | 720 nM |
| Cc1ccc(CNC(=O)[C@H](CC(C)C)Nc2cc(C)nc(NCC3CCCCC3)n2)cc1 | 930 nM |
| Cc1cc(N2CCCC2)nc(Nc2ccc(NC(=O)c3ccccc3F)cc2)n1 | 920 nM |
| c1cncc(NCc2ccc(-c3cc4ccncc4cc3OC3CCNCC3)s2)c1 | 980 nM |
| CC(=O)c1cccc(S(=O)(=O)NCCCNc2nc3cc(C)cc(C)c3cc2C#N)c1 | 910 nM |
| Cc1ccc(C)c(NC(=O)CC2C(=O)N(c3ccccc3)C(=S)N2Cc2ccco2)c1 (stereo unspecified) | 570 nM |
| Cc1cccc(C(=O)N2CCN(Cc3cccc(NC(=O)c4cccs4)c3)CC2)c1 | 220 nM |
| CCCCCCNC(=O)C1Cc2c([nH]c3ccc(F)cc23)C2(CCN(Cc3ccccc3)CC2)N1 (stereo unspecified) | 870 nM |
| CN(c1ccc(NC(=O)Nc2cc(C(C)(C)C)on2)cc1)c1ccnc(NCCOC(=O)Nc2cc(C(C)(C)C)on2)n1 | 750 nM |
| CCc1cn2c3c(cc(C(=O)N[C@@H](Cc4cc(F)cc(F)c4)[C@H](O)CNC4CCCCC4)cc13)N(C)S(=O)(=O)CC2 | 30 nM |
| Cc1sc2nc(CSc3ccccc3)nc(N3CCN(CC(=O)NC4CC4)CC3)c2c1C | 460 nM |
| CCOc1cc(O)c(-c2nc(N)ncc2-c2ccc3c(c2)OCCO3)cc1CC | 730 nM |
| COc1c(C2CCN(CCCCNC(=O)c3ccc(-c4ccc(Cl)cc4)cc3)CC2)ccc2c1C(C)(C)CCC2(C)C | 780 nM |
| CC(=O)Nc1ccc(C(=O)Nc2cccc(-c3ccc(-c4nc5ccc(C(F)(F)F)cc5[nH]4)s3)c2)cn1 | 130 nM |
| Cc1cc(N[C@@H](Cc2ccccc2)C(=O)NC2CCCC2)nc(NCCCOC(C)C)n1 | 1480 nM |

| SMILES | IC50 |
| --- | --- |
| Cc1ccc2nc(C)cc(NN=Cc3cccc(Cl)c3)c2c1 | 740 nM |
| CO/N=C(\C)c1ccc2c(c1)CCN(CCC1CCC(NC(=O)/C=C/c3ccc(F)cc3)CC1)CC2 (stereo unspecified) | 1070 nM |
| OC(CNC1CCCCCC1)c1ccc(Cl)c(Cl)c1 (stereo unspecified) | 690 nM |
| CCCCCc1cnc2nc(N)nc(N)c2c1C | 210 nM |
| Cc1cccc2[nH]c(-c3cccc(-c4cccc(NC(=O)c5cccnc5)c4)c3)nc12 | 230 nM |
| CC(C)Cn1cc2c(ccc3nc(N)nc(N)c32)n1 | 300 nM |
| CCCN1CCN(CCNC(=O)c2cccc(Nc3nccc(Nc4ccc(Oc5ccccc5)cc4)n3)c2)CC1 | 240 nM |
| COc1ccc(CCNCc2ccc3c(C)cc(N)nc3c2)cc1 | 570 nM |
| Cc1cc(-c2cc(Cl)ccc2Cl)no1 | 170 nM |
| Cc1cc(N[C@@H](CC(C)C)C(=O)NCCc2ccccc2)nc(NCc2ccccc2C)n1 | 910 nM |
| CN1CCC(C(=O)Nc2cccc(-c3cccc(-c4nc5ccc(F)cc5[nH]4)c3)c2)CC1 | 690 nM |
| Cc1[nH]c(C)c(-c2ccc(Cl)cc2Cl)c(=O)c1Br | 1010 nM |
| Nc1nc(N)c2c(ccc3[nH]c(-c4ccccc4Cl)nc32)n1 | 230 nM |
| NC(N)=Nc1ccc(OCCCCCOc2ccc(N=C(N)N)cc2)cc1 | 190 nM |
| COc1cc(COc2c(C)nc(N)nc2N)cc(OC)c1OC | 330 nM |
| O=C(Nc1ccc(C(=O)N(Cc2ccc3c(c2)OCO3)C2CCCC2)cc1)c1cccs1 | 650 nM |
| COc1cc(C(=O)NCCCN2CCN(c3cc(Cl)ccc3OC)CC2)ccc1-c1nc2cc(Cl)c(Cl)cc2[nH]1 | 730 nM |
| O=C(N[C@@H](Cc1ccccc1)C(=O)NCCN1CCCCC1)c1ccc(O)c(-c2ccc(Cl)c(Cl)c2)c1 | 1520 nM |
| CO/C(=C\C=C\c1cc2cc(Cl)c(Cl)cc2[nH]1)C(=O)NCCCN1CCN(c2cccc(OCC(=O)Nc3ccccc3)c2)CC1 | 500 nM |
| O=C(Nc1ccc(S(=O)(=O)N2CCCCCC2)cc1)c1cc(-c2ccccc2O)n[nH]1 | 720 nM |
| C=CCc1ccc(C2CCN(CCCCNC(=O)c3ccc(NC(=O)c4ccc(Cl)cc4)cc3)CC2)cc1 | 1120 nM |
| COCCN1CCC(CN(C)CC(C)(C)c2nc(-c3ccc(Cl)c(O)c3)c(-c3ccncc3)[nH]2)CC1 | 1030 nM |
| O=C(NCCCCN1CCC(c2ccc3c(c2O)CCCC3)CC1)c1ccc(-c2ccc(Cl)cc2)cc1 | 750 nM |
| COc1ccc(NC(=O)c2cc(-c3ccc(NC(C)=O)cc3)cnc2N)cc1 | 810 nM |

| SMILES | IC50 |
| --- | --- |
| CCOC(=O)CCc1cc(F)c(F)c(OC[C@H](O)CNC(C)(C)C(O)c2ccc3ccccc3c2)c1 (stereo partly specified) | 860 nM |
| CCOc1ccc2nc(-c3ccccc3)cc(NN=Cc3ccncc3)c2c1 | 150 nM |
| O=C(Nc1cccc(CN2CCCN(Cc3ccsc3)CC2)c1)c1cc2ccccc2s1 | 760 nM |
| CC(C)(Oc1ccc(Cl)cc1)C(=O)NCCC1CCN(CCCCCNC(=O)/C=C/c2ccc(Cl)c(Cl)c2)CC1 | 940 nM |
| c1cc(OCCN2CCCC2)ccc1CNC1CCN(CC2CCCCC2)CC1 | 840 nM |
| Clc1ccc2c(NN=Cc3cccnc3)ccnc2c1 | 700 nM |
| Cc1cccc(CN2CCCN(Cc3ccc(C(=O)Nc4ccc(Cl)cc4)cc3)CC2)c1 | 600 nM |
| COc1ccc(NC(=O)[C@H](Cc2ccccc2)Nc2cc(C)nc(NCCc3ccccn3)n2)cc1 | 830 nM |
| COc1ccccc1/C=C/C(=O)NC1CCC(CCN2CCc3ccc(-c4cc(C)no4)cc3CC2)CC1 (stereo unspecified) | 960 nM |
| COc1ccc(CNc2nc(Nc3cccc(C#N)c3)nc(Nc3cccc(C#N)c3)n2)cc1Cl | 180 nM |
| O=C(Nc1cccc(CN2CCCN(Cc3ccc(O)cc3)CC2)c1)c1cccc(F)c1 | 900 nM |
| COc1ccc(OCCn2cc(C(=O)c3ccco3)c3ccccc32)cc1 | 770 nM |
| C[C@@H]1C[C@@H]([C@H](O)CC2CC(=O)NC(=O)C2)C(=O)[C@@H](C)C1 | 530 nM |
| CC(C)(C)c1ccc(O)c(CNC2CCCCC2)c1 | 260 nM |
| C=CCOC(=O)N1CCC(CNCc2ccc(-c3cccc(-c4nc5c(C)cccc5[nH]4)c3)cc2)C1 (stereo unspecified) | 120 nM |
| CS(=O)(=O)CCNCc1ccc(-c2ccc3c(Nc4ccc(F)cc4Cl)ccnc3c2)o1 | 740 nM |
| O=C(Nc1ccc(Cl)cc1)c1ccc(CN2CCCN(Cc3ccsc3)CC2)cc1 | 860 nM |
| Cc1noc(C)c1-c1cccc(CNCc2cccc(-c3cccc(-c4nc5ccc(F)cc5[nH]4)c3)c2)c1 | 180 nM |
| Cc1nccn1CCNC(=O)CN1CCC2(CCC1=O)CC(=O)c1ccccc1O2 (stereo unspecified) | 800 nM |
| CCCN(CC1CC1)c1ncc(-c2ccccc2CNCc2ccccc2O)cn1 | 500 nM |
| CC(C)n1ncc2c(C(=O)N3CCCc4ccccc43)cc(-c3ccccc3)nc21 | 600 nM |
| Cc1cc(Nc2cccc(C(F)(F)F)c2)nc(N)n1 | 790 nM |
| Cc1cccc2[nH]c(-c3ccc(-c4cccc(NC(=O)Nc5ccccc5)c4)cc3)nc12 | 720 nM |
